Laboratory results taken from patent publication US20080207522A1, “Antimicrobial Peptides” (priority 2004, published 2008).
“And” between values parts separate entries of the source, which are not always exact repeats. Equal values may be shown once. Read-outs that look alike come from different tables or passages of the source. Ends that are not written are not given here.

Assays:
[1] = tested on: Salmonella enterica ssp. Typhimurium
Procedure: (§1) Minimal inhibitory concentration (MIC) determination. The MICs of the peptides were measured using a modified broth microdilution method in Mueller Hinton (MH) medium. Wu et al., J. Biol. Chem. 274: 29-35, 1999. Briefly, the peptides were dissolved and stored in glass vials. The assay was performed in sterile 96-well polypropylene microtitre plates were used. Serial dilutions of the peptides to be assayed were performed in 0.01% acetic acid (Fisher) containing 0.2% bovine serum albumin (Boehringer Mannheim GmbH) at 10× the desired final concentration. Ten microlitres of the 10× peptides were added to each well of a 96-well polypropylene plate containing 90 μl of MH media per well. Bacteria were added to the plate from an overnight culture at 2-7×10^5 colony forming units/ml and incubated over night at 37° C. The MIC was taken as the concentration at which no growth was observed.
(§2) Strains. For the killing assay a mini-Tn5-lux mutant in Pseudomonas aeruginosa H103 was used. The strain is called H1001 and contains a fliC::luxCDABE transcriptional fusion resulting in constitutive expression of luciferase. The bacterial strains used for the antimicrobial activity assays included Escherichia coli UB1005 (F-, nalA37, metB1), a wild-type Salmonella enterica ssp. Typhimurium (S. Typhimurium), wild-type Pseudomonas aeruginosa PAO1 strain H103, Enterococcus faecalis ATCC29212, Staphylococcus aureus ATCC25923, and a clinical isolate of Staphylococcus epidermidis obtained from Dr. D. Speert (Department of Medicine, University of British Columbia). Antifungal activity was tested using a lab isolate of Candida albicans obtained from Dr. B. Dill (Department of Microbiology and Immunology, University of British Columbia).
(§3) In addition, the parent peptide Bac2A was included in these studies as a standard. The minimal inhibitory concentrations (MIC) were determined for the important medical pathogens Pseudomonas aeruginosa, Escherichia coli, Salmonella typhimurium, Staphylococcus aureus, Staphylococcus epidermidis, Enterococcus faecaelis, and the yeast Candida albicans in Mueller-Hinton media.

[2] = tested on: Enterococcus faecalis ATCC29212
Procedure: as §1, §2, §3

[3] = tested on: Pseudomonas aeruginosa PAO1 strain H103
Procedure: as §1, §2, §3

[4] = tested on: Staphylococcus aureus ATCC25923
Procedure: as §1, §2, §3

Escherichia coli UB1005 = tested on: Escherichia coli UB1005
Procedure: as §1, §2, §3

Candida albicans = tested on: Candida albicans
Procedure: as §1, §2, §3

[5] = tested on: Staphylococcus epidermidis
Procedure: as §1, §2, §3

[6] = tested on: Staphylococcus aureus cells; test: Membrane depolarization with membrane potential-sensitive dye diSC35; format: cell-based; details: 20 μg/ml of peptides, diSC35 release, FIG. 4
Procedure: FIG. 4 is a graphical representation showing the mechanism of action of peptides assessed by measuring the ability to depolarize Staphylococcus aureus cells using the membrane potential-sensitive dye diSC35. Either 20 μg/ml of peptides or, as a control, 29 μg/ml of gramicidin S (Gram S) were added. Lines are smoothed using a polynomial (to the 6th power) function.

[7] = tested on: Pseudomonas aeruginosa strain H1001 fliC::luxCDABE; test: Luminescence-based assay for the non-cleaved (bound) peptides on cellulose membranes; format: cell-based; details: for Luminescence at the given time in minutes: 0: 0 min; for Luminescence at the given time in minutes: 20: 20 min; for Luminescence at the given time in minutes: 40: 40 min; for Luminescence at the given time in minutes: 100: 100 min; for Activity Class bound: uncleaved cellulose-bound peptides
Outline: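 Peptides remained bound to cellulose spots, which were ethanol-washed and equilibrated in 100 mM Tris pH 7.3. Constitutively lux-expressing P. aeruginosa (OD600 0.35 culture diluted 1:25) added in 10 mM Tris-HCl pH 7.3, 20 mM glucose at 37° C. Luminescence (RLU) followed over 14 time points; peptides binned into six activity classes.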

[8] = tested on: Pseudomonas aeruginosa strain H1001; test: Assay for the cleaved (free, soluble) peptides from cellulose support, luminescence killing assay; format: cell-based; design: key: 1: Peptides showing stronger killing than Bac2A at a 4 to 8-fold higher dilution; Peptides showing stronger killing compared to that of Bac2A at a 4-fold higher dilution; 3: Peptides similar to Bac2A; 4: Peptides similar to Bac2A at the highest concentration but demonstrating weaker killing at a 2-fold dilution; 5: Peptides giving very weak or no killing at a 2-fold dilution; 6: Peptides with weak killing activity at the highest concentration; details: for Soluble Class: Table 5, free peptides; for Activity Class Soluble: free (cleaved) peptides, killing relative to Bac2A
Outline: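 Cellulose-synthesized peptides (amidated C-terminus, two β-alanines) cleaved by ammonia, released from punched spots 30 min at 37 °C, then serially diluted. P. aeruginosa H1001 (constitutive fliC::luxCDABE) overnight culture diluted 1:500 in LB or 100 mM Tris pH 7.3/20 mM glucose. Killing followed as time-dependent luminescence loss at 37 °C.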

[9] = tested on: THP-1 macrophage-like cells; details: at 100 μg/ml
Procedure: THP1 cells were cultured in RPMI 1640 medium (supplemented with 10% (v/v) FCS, 1% L-glutamine, and 1 nM sodium pyruvate) in E-toxa-clean (Sigma-Aldrich, Oakville, Ontario, Canada)-washed, endotoxin-free bottle. THP1 cells were counted and 250 μl per well of 2-4×10^4 cells/ml were transferred into a 96 well tissue cultured treated polystyrene microtiterplate (Beckton Dickinson, Franklin Lakes, USA). In addition PMA was added (1.3 nM) and the cells were incubated for three days. After three days the medium were exchanged and Pseudomonas aeruginosa LPS and the peptides were added. The incubation time was four hours and the supernatant was frozen at −20° C. The cells were stained with Tryphan Blue for 2 minutes and washed with PBS two times. The viability of the cells was determined by counting the stained cells over the unstained.
Cytotoxicity was assessed using PMA-treated, human macrophage THP-1 cell line (FIG. 5).

[10] = cellulose-bound peptide, listed as Bac001

Substance	MIC S. Typhim. ([1]; Table 6)	MIC E. faecalis ([2]; Table 6)	MIC P. aerug ([3]; Table 6)	MIC S. aureus ([4]; Table 6)	MIC E. coli (Escherichia coli UB1005; Table 6)	MIC C. albicans (Candida albicans; Table 6)	MIC S. epi. ([5]; Table 6)	MIC S. typhimurium ([1]; ssp. Typhimurium) [µg/mL]	MIC P. aeruginosa ([3]; PAO1) [µg/mL]	MIC P. aeruginosa Muller Hinton Media ([3]; PAO1) [µg/mL]	MIC P. aeruginosa With 10 μM Mg ([3]; PAO1) [µg/mL]	MIC P. aeruginosa With 2 mM Mg ([3]; PAO1) [µg/mL]	MIC S. epidermidis [5] [µg/mL]	further results
Bac109: peptide of Table 6 (substitution peptides and truncation variants of Bac2A); sequence in Table 1 (RIVVIRVAR)	n.s.	n.s.	n.s.	n.s.	n.s.	n.s.	n.s.	–	–	–	–	–	–	–
Bac112: peptide of Table 6 (substitution peptides and truncation variants of Bac2A); sequence in Table 1 (ARIVVIRV)	n.s.	n.s.	n.s.	n.s.	n.s.	n.s.	n.s.	–	–	–	–	–	–	–
Bac118: peptide of Table 6 (substitution peptides and truncation variants of Bac2A); sequence in Table 1 (RIVVIRV)	n.s.	n.s.	n.s.	n.s.	n.s.	n.s.	n.s.	–	–	–	–	–	–	–
Bac241: peptide of Table 6 (substitution peptides and truncation variants of Bac2A); sequence in Table 1 (RLERIVVIRVAR)	n.s.	n.s.	n.s.	n.s.	n.s.	n.s.	n.s.	–	–	–	–	–	–	–
Bac263: peptide of Table 6 (substitution peptides and truncation variants of Bac2A); sequence in Table 1 (RLAGIVVIRVAR)	n.s.	n.s.	n.s.	n.s.	n.s.	n.s.	n.s.	–	–	–	–	–	–	–
Bac297: peptide of Table 6 (substitution peptides and truncation variants of Bac2A); sequence in Table 1 (RLARICVIRVAR)	n.s.	n.s.	n.s.	n.s.	n.s.	n.s.	n.s.	–	–	–	–	–	–	–
RLARIVVIRVAR-NH2 [Bac2A, reference compound]	–	–	–	–	17 µg/mL	–	–	34	50	54	18	73	4	MIC S. Typhim. ([1]; ssp. Typhimurium): 34 µg/mL; difference in MIC between high and low Mg2+ conditions ([3]; P. aeruginosa, Table 5): 4 fold; MIC P. aerug ([3]; PAO1): 50 µg/mL; MIC E. coli (Escherichia coli UB1005; Table 4a, Mueller-Hinton media, average of three measurements): 17 µg/mL; MIC S. epi. [5]: 4 µg/mL; ability to depolarize the membrane of S. aureus [6]: able to depolarize the membrane of S. aureus very quickly; Luminescence at the given time in minutes: 0 [7, 10]: 4374 RLU and 4041 RLU and 4234 RLU and 4425 RLU and 4530 RLU; Luminescence at the given time in minutes: 20 [7, 10]: 6729 RLU and 6352 RLU and 6373 RLU and 6323 RLU and 6411 RLU; Luminescence at the given time in minutes: 40 [7, 10]: 2607 RLU and 2249 RLU and 1840 RLU and 2721 RLU; Luminescence at the given time in minutes: 100 [7, 10]: 48 RLU and 35 RLU and 50 RLU and 53 RLU and 57 RLU; Activity Class bound [7]: 3 (Peptides similar to Bac2A resulting in lux values of less than 500 after 240 min.); inhibition of light production (killing) over 10 consecutive cycles ([7]; uncleaved peptide spots re-used 10 times, 40 h exposure to bacteria per cycle): very similar inhibition of light production (killing) was observed; Soluble Class [8]: 3; Activity Class Soluble [8]: 3
RRAAVVLIVIRR-NH2 (C-terminus assumed) [Bac020]	–	–	–	–	–	–	–	18	7	7	2	8	1.5	MIC E. faecalis ([2]; ATCC29212): 8 µg/mL; MIC against P. aeruginosa ([3]; PAO1): 7 µg/mL; MIC S. aureus ([4]; ATCC25923): 5 µg/mL; MIC C. albicans (Candida albicans): 11 µg/mL; cytotoxic effect against a human macrophage cell line [9]: no cytotoxic effect
VRLRIRVAVIRA-NH2 (C-terminus assumed) [Bac034]	–	–	–	–	–	–	–	6	10	10	4	16	4	MIC E. faecalis ([2]; ATCC29212): 11 µg/mL; MIC S. aureus ([4]; ATCC25923): 5 µg/mL; MIC C. albicans (Candida albicans): 8 µg/mL; Luminescence at the given time in minutes: 0 ([7]; cellulose-bound peptide): 5305 RLU; Luminescence at the given time in minutes: 20 ([7]; cellulose-bound peptide): 6449 RLU; Luminescence at the given time in minutes: 40 ([7]; cellulose-bound peptide): 4160 RLU; Luminescence at the given time in minutes: 60 ([7]; cellulose-bound peptide, 60 min): 1454 RLU; Luminescence at the given time in minutes: 80 ([7]; cellulose-bound peptide, 80 min): 390 RLU; Luminescence at the given time in minutes: 100 ([7]; cellulose-bound peptide): 157 RLU; Luminescence at the given time in minutes: 120 ([7]; cellulose-bound peptide, 120 min): 64 RLU; Luminescence at the given time in minutes: 180 ([7]; cellulose-bound peptide, 180 min): 60 RLU; Luminescence at the given time in minutes: 240 ([7]; cellulose-bound peptide, 240 min): 63 RLU; Activity Class bound [7]: 3 (Peptides similar to Bac2A resulting in lux values of less than 500 after 240 min.); Soluble Class [8]: 1; Activity Class Soluble [8]: 1
